Experimental data reported in PubChem BioAssay AID330 (DTP/NCI, 2004).
Where “and” joins values, the source holds several entries; their conditions need not be identical. Equal values may be shown once. Toxic doses and inconclusive results are not listed. Rule for the calls: active = survival T/C of 150% or more; inactive = T/C below 125% in these data.

System: P388 leukemia ip, CD2F1 mice, survival T/C
Assay: NCI In Vivo Anticancer Drug Screen. Data for tumor model P388 Leukemia (intraperitoneal) in CD2F1 (CDF1) mice
Conditions: endpoint: median survival time, higher = longer survival
In short: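 Mice carrying the transplanted tumor received test compound or vehicle. Survival was recorded in each group, and the value is the treated-group measurement divided by that of the vehicle-treated control group.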

[1] = dose: 50.0 mg/kg/injection, schedule: Q01DX005 (ip), vehicle: saline with Tween-80
[2] = dose: 100.0 mg/kg/injection, schedule: Q01DX005 (ip), vehicle: saline with Tween-80
[3] = dose: 200.0 mg/kg/injection, schedule: Q01DX005 (ip), vehicle: saline with Tween-80
[4] = dose: 1.56 mg/kg/injection, schedule: Q01DX009 (ip), vehicle: saline
[5] = dose: 50.0 mg/kg/injection, schedule: Q01DX009 (ip), vehicle: saline with Tween-80
[6] = dose: 60.0 mg/kg/injection, schedule: Q01DX005 (ip), vehicle: Klucel (hydroxypropylcellulose) (HPC)
[7] = dose: 120.0 mg/kg/injection, schedule: Q01DX005 (ip), vehicle: Klucel (hydroxypropylcellulose) (HPC)
[8] = dose: 60.0 mg/kg/injection, schedule: Q01DX005 (ip), vehicle: saline with Tween-80
[9] = dose: 120.0 mg/kg/injection, schedule: Q01DX005 (ip), vehicle: saline with Tween-80
[10] = dose: 240.0 mg/kg/injection, schedule: Q01DX005 (ip), vehicle: saline with Tween-80
[11] = dose: 50.0 mg/kg/injection, schedule: Q01DX005 (ip), vehicle: Klucel (hydroxypropylcellulose) (HPC)
[12] = dose: 100.0 mg/kg/injection, schedule: Q01DX005 (ip), vehicle: Klucel (hydroxypropylcellulose) (HPC)
[13] = dose: 200.0 mg/kg/injection, schedule: Q01DX005 (ip), vehicle: Klucel (hydroxypropylcellulose) (HPC)

Measured: T/C

CN=C(NC)c1ccc(NC(=O)c2ccc(C(=O)Nc3ccc(C(=NC)NC)c(OC)c3)c(Cl)c2)cc1OC
inactive: dose: 0.78 mg/kg/injection, schedule: Q01DX005 (ip), vehicle: saline with Tween-80 101 % of control | dose: 1.56 mg/kg/injection, schedule: Q01DX005 (ip), vehicle: saline with Tween-80 104 % of control | dose: 3.13 mg/kg/injection, schedule: Q01DX005 (ip), vehicle: saline with Tween-80 105 % of control

CC1CCCN2C(=O)CN(C3CCCCC3)CC(=O)N12 (stereo not given)
inactive: [1] 100 % of control | [2] 100 % of control | [3] 100 % of control

CCOc1nc(N)nc(C)c1N=Nc1ccc(C)cc1
inactive: dose: 60.0 mg/kg/injection, schedule: Q01DX005 (ip), vehicle: Klucel + Tween-80 110 % of control | dose: 120.0 mg/kg/injection, schedule: Q01DX005 (ip), vehicle: Klucel + Tween-80 116 % of control | dose: 240.0 mg/kg/injection, schedule: Q01DX005 (ip), vehicle: Klucel + Tween-80 113 % of control

COc1ccc(C2C(C#N)C(=O)N3C(=O)C(NC(C)=O)=C(O)C23)cc1 (stereo not given)
inactive: dose: 100.0 mg/kg/injection, schedule: Q01DX001 (ip), vehicle: saline 94 % of control | dose: 200.0 mg/kg/injection, schedule: Q01DX001 (ip), vehicle: saline 95 % of control | dose: 400.0 mg/kg/injection, schedule: Q01DX001 (ip), vehicle: saline 97 % of control

c1ccc(-c2c[n+]3ccccc3n2-c2ccccc2)cc1
inactive: [4] 100 % of control | dose: 3.12 mg/kg/injection, schedule: Q01DX009 (ip), vehicle: saline 94 % of control | dose: 6.25 mg/kg/injection, schedule: Q01DX009 (ip), vehicle: saline 101 % of control and 92 % of control

CCCCn1c(=O)cc(C(=O)O)[nH]c1=O
inactive: [5] 104 % of control | dose: 100.0 mg/kg/injection, schedule: Q01DX009 (ip), vehicle: saline with Tween-80 100 % of control | dose: 200.0 mg/kg/injection, schedule: Q01DX009 (ip), vehicle: saline with Tween-80 94 % of control

OCCN1CCOC(O)(c2cccc(C(F)(F)F)c2)C1 (stereo not given)
inactive: [1] 101 % of control | [2] 95 % of control | [3] 96 % of control

OCC(O)C[S][Bi]([c]1ccccc1)[c]1ccccc1 (stereo not given)
inactive: [6] 116 % of control | [7] 100 % of control

FC(F)(F)c1cccc(C(Nc2nncs2)Nc2nncs2)c1
inactive: [1] 96 % of control | [2] 91 % of control | [3] 88 % of control

O=C(CCc1ccccc1)OC/C=C/COC(=O)c1ccccc1
inactive: dose: 50.0 mg/kg/injection, schedule: Q01DX009 (ip), vehicle: Klucel (hydroxypropylcellulose) (HPC) 102 % of control | dose: 100.0 mg/kg/injection, schedule: Q01DX009 (ip), vehicle: Klucel (hydroxypropylcellulose) (HPC) 111 % of control | dose: 200.0 mg/kg/injection, schedule: Q01DX009 (ip), vehicle: Klucel (hydroxypropylcellulose) (HPC) 106 % of control

CCOC(=O)c1c(C)c(C(C)=O)c2ccccn12
inactive: [8] 104 % of control | [9] 119 % of control | [10] 105 % of control

[Se]=[Mo]=[Se]
inactive: [8] 96 % of control | [9] 95 % of control | [10] 97 % of control

CC1=C(O)C(=O)C=C2C1=CC=C1[C@@]2(C)CC[C@@]2(C)[C@@H]3C[C@](C)(C(=O)O)CC[C@]3(C)CC[C@]12C
inactive: dose: 0.19 mg/kg/injection, schedule: Q01DX009 (ip), vehicle: saline 101 % of control | dose: 0.39 mg/kg/injection, schedule: Q01DX009 (ip), vehicle: saline 101 % of control | dose: 0.78 mg/kg/injection, schedule: Q01DX009 (ip), vehicle: saline 97 % of control | [4] 87 % of control | dose: 3.12 mg/kg/injection, schedule: Q01DX009 (ip), vehicle: suspension in saline 91 % of control

COc1cc(/C=C/C(C)=N/NC(N)=O)cc(OC)c1OC
inactive: dose: 30.0 mg/kg/injection, schedule: Q01DX005 (ip), vehicle: Klucel (hydroxypropylcellulose) (HPC) 103 % of control | [6] 100 % of control | [7] 103 % of control | dose: 240.0 mg/kg/injection, schedule: Q01DX005 (ip), vehicle: Klucel (hydroxypropylcellulose) (HPC) 104 % of control

CNc1ncc2c(n1)N(C)C(=O)/C(=C\C(=O)OC)N2
inactive: dose: 40.0 mg/kg/injection, schedule: Q01DX009 (ip), vehicle: saline with Tween-80 101 % of control | dose: 80.0 mg/kg/injection, schedule: Q01DX009 (ip), vehicle: saline with Tween-80 93 % of control | dose: 160.0 mg/kg/injection, schedule: Q01DX009 (ip), vehicle: saline with Tween-80 99 % of control

CCCn1cnc2c(sc3ccccc32)c1=O
inactive: [11] 101 % of control | [12] 93 % of control | [13] 93 % of control

O=C1OC(c2ccccc2)(c2ccccc2)CC12CC(c1ccccc1)(c1ccccc1)OC2=O
inactive: [1] 91 % of control | [2] 94 % of control

CC(C)SSC(=O)N1CCCC1C(=O)O (stereo not given)
inactive: dose: 15.0 mg/kg/injection, schedule: Q01DX005 (ip), vehicle: saline 106 % of control | dose: 30.0 mg/kg/injection, schedule: Q01DX005 (ip), vehicle: saline 98 % of control | dose: 60.0 mg/kg/injection, schedule: Q01DX005 (ip), vehicle: saline 98 % of control

COc1cc(CC2C(=O)OCC2Cc2ccc3c(c2)OCO3)cc(OC)c1OC (stereo not given)
inactive: dose: 12.5 mg/kg/injection, schedule: Q01DX009 (ip), vehicle: saline with Tween-80 98 % of control | dose: 25.0 mg/kg/injection, schedule: Q01DX009 (ip), vehicle: saline with Tween-80 104 % of control | [5] 100 % of control | dose: 50.0 mg/kg/injection, schedule: Q04DX002 (ip), vehicle: acetone 94 % of control | dose: 50.0 mg/kg/injection, schedule: Q04DX002 (ip), vehicle: saline with Tween-80 103 % of control | dose: 100.0 mg/kg/injection, schedule: Q04DX002 (ip), vehicle: acetone 100 % of control | dose: 100.0 mg/kg/injection, schedule: Q04DX002 (ip), vehicle: saline with Tween-80 100 % of control | dose: 200.0 mg/kg/injection, schedule: Q04DX002 (ip), vehicle: acetone 100 % of control | dose: 200.0 mg/kg/injection, schedule: Q04DX002 (ip), vehicle: saline with Tween-80 100 % of control

CC(NC(=O)CNC(=O)CN)C(=O)O (stereo not given)
inactive: dose: 25.0 mg/kg/injection, schedule: Q01DX005 (ip), vehicle: saline 102 % of control | dose: 50.0 mg/kg/injection, schedule: Q01DX005 (ip), vehicle: saline 92 % of control | dose: 100.0 mg/kg/injection, schedule: Q01DX005 (ip), vehicle: saline 94 % of control | dose: 200.0 mg/kg/injection, schedule: Q01DX005 (ip), vehicle: saline 94 % of control

c1ccc(-c2cnc3nc4[nH]c5ccccc5c4nn23)cc1
inactive: [1] 98 % of control | [2] 92 % of control | [3] 98 % of control

O=c1oc2cccc(O)c2s1
inactive: dose: 12.5 mg/kg/injection, schedule: Q01DX001 (ip), vehicle: saline 97 % of control | dose: 25.0 mg/kg/injection, schedule: Q01DX001 (ip), vehicle: saline 99 % of control | dose: 50.0 mg/kg/injection, schedule: Q01DX001 (ip), vehicle: Klucel (hydroxypropylcellulose) (HPC) 106 % of control | dose: 50.0 mg/kg/injection, schedule: Q01DX001 (ip), vehicle: saline 98 % of control

CC(C)(C)N1C(=O)NCS1(=O)=O
inactive: [11] 100 % of control | [12] 100 % of control | [13] 115 % of control

CN1C(=O)C23CCCCN2CC12CC1(C(=O)Nc4c1ccc1c4OC=CC(C)(C)O1)C(C)(C)C2C3 (stereo not given)
inactive: dose: 0.37 mg/kg/injection, schedule: Q01DX009 (ip), vehicle: Klucel (hydroxypropylcellulose) (HPC) 100 % of control | dose: 0.75 mg/kg/injection, schedule: Q01DX009 (ip), vehicle: Klucel (hydroxypropylcellulose) (HPC) 102 % of control | dose: 1.5 mg/kg/injection, schedule: Q01DX009 (ip), vehicle: Klucel (hydroxypropylcellulose) (HPC) 100 % of control | dose: 3.0 mg/kg/injection, schedule: Q01DX009 (ip), vehicle: Klucel (hydroxypropylcellulose) (HPC) 100 % of control | dose: 4.5 mg/kg/injection, schedule: Q01DX009 (ip), vehicle: Klucel (hydroxypropylcellulose) (HPC) 96 % of control | dose: 9.0 mg/kg/injection, schedule: Q01DX009 (ip), vehicle: Klucel (hydroxypropylcellulose) (HPC) 98 % of control | dose: 18.0 mg/kg/injection, schedule: Q01DX009 (ip), vehicle: Klucel (hydroxypropylcellulose) (HPC) 100 % of control
